# According to US9227923B2, “Pesticidal carboxamides” (Bayer Intellectual Property GmbH, priority 2009, dated 2016):
# Experiments:
# Format in all cases: in vivo
# [1] = tested on: Tobacco Cutworm (Spodoptera litura) Larvae; assay: Test against tobacco cutworm (Spodoptera litura) larvae, leaf dip; conditions: active compound concentration of 100 ppm, third instar larvae, after 7 days; for pest or weed control at 100 ppm: Spodoptera litura, foliar, 168 h, read-out: insecticidal activity
# In short: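 Sweet potato leaves were dipped in the test solution (DMF solvent, polyoxyethylene alkyl phenyl ether emulsifier), air-dried and offered to ten third-instar larvae per dish at 25 °C, with fresh leaves added on days 2 and 4. Mortality was counted at day 7 and expressed as % insecticidal activity (100% = all dead).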
# [2] = tested on: Two-Spotted Spider Mite (Tetranychus Urticae); assay: Test against two-spotted spider mite (Tetranychus urticae), spray; conditions: active compound concentration of 100 ppm; adult mites; after 7 days
# Text: Solvent: 3 parts by weight of dimethylformamide
# Emulsifier: 1 part by weight of polyoxyethylene alkyl phenyl ether
# [3] = tested on: Cucurbit Leaf Beetle (Aulacophora Femoralis); assay: Test against cucurbit leaf beetle (Aulacophora femoralis), leaf dip; conditions: active compound concentration of 100 ppm, second instar larvae, after 7 days; for pest or weed control at 100 ppm: Aulacophora, foliar, 168 h, read-out: insecticidal activity
# In short: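 Cucumber leaves dipped in compound solution (DMF solvent, polyoxyethylene alkyl phenyl ether emulsifier), air-dried, and placed with five second-instar larvae in cups on sterilized soil at 25° C. Dead larvae counted after 7 days; activity expressed as percent larvae killed.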
# [4] = tested on: Boophilus microplus; assay: Boophilus microplus test (injection); conditions: for mortality at 0.02 mg: Rhipicephalus microplus, 168 h, read-out: activity (mortality in %; 100% means that all eggs are infertile); for activity (mortality in %; 100% means that all eggs are infertile): application rate of 20 μg/animal, injection, after 7 days
# Procedure: (§1) Solvent: dimethyl sulfoxide
# Five adult engorged female ticks (Boophilus microplus) are injected with […] compound solution into the abdomen. Ticks are transferred into replica plates and incubated in a climate chamber for a period of time. Egg deposition of fertile eggs is monitored.
# After 7 days mortality in % is determined. 100% means that all eggs are infertile; 0% means that all eggs are fertile. […]
# [5] = tested on: Ctenocephalides felis; assay: whole plant or invertebrate; conditions: for mortality at 100 ppm: Ctenocephalides felis, in Bos taurus, 48 h, read-out: activity (mortality in %); for activity (mortality in %): application rate of 100 ppm in cattle blood, after 2 days
# Procedure: as §1
# Approximately 20 adult unfed (Ctenocepahlides felis) are placed in flea chambers. […] The blood chamber is heated to 37° C. whereas the flea chamber is kept at room temperature.
# [6] = tested on: Lucilia cuprina 1st instar larvae; assay: whole plant or invertebrate; conditions: for mortality at 100 ppm: Lucilia cuprina, 48 h, read-out: activity (percentage of larval mortality); for activity (percentage of larval mortality): application rate of 100 ppm, after 48 hrs
# Procedure: species: Lucilia cuprina 1st instar larvae (age 24 hrs)
# solvent: dimethyl sulfoxide
# Serial dilutions are made to obtain the desired rates. Approximately 20 Lucilia cuprina 1st instar larvae are transferred into a test tube containing 1 cm^3 of minced horse meat and 0.5 ml aqueous dilution of test compound. After 48 hrs percentage of larval mortality are recorded. 100% efficacy=all larvae are killed, […].
Structure (SMILES),pest or weed control at 100 ppm [1] [%],acaricidal activity [2] [%],mortality at 0.02 mg [4] [%],insecticidal activity [1] [%],insecticidal activity [3] [%],also measured
"CCc1cc(C(F)(C(F)(F)F)C(F)(F)F)cc(C)c1NC(=O)c1ccc(-n2cncn2)cc1 [Compound 1-31, N-[2-ethyl-4-(1,1,1,2,3,3,3-heptafluoropropan-2-yl)-6-methylphenyl]-4-(1H-1,2,4-triazol-1-yl)benzamide]",100,100,100,–,–,pest or weed control at 100 ppm [3]: 100%; mortality at 100 ppm [5]: 90%; mortality at 100 ppm [6]: 100%
"CCc1cc(C(F)(C(F)(F)F)C(F)(F)F)cc(C)c1NC(=O)c1ccc(-n2cncn2)c(N)c1 [Compound 1-38, 3-amino-N-[2-ethyl-4-(1,1,1,2,3,3,3-heptafluoropropan-2-yl)-6-methylphenyl]-4-(1H-1,2,4-triazol-1-yl)benzamide]",100,–,100,–,–,mortality at 100 ppm [5]: 100%; mortality at 100 ppm [6]: 100%
"CCc1cc(C(F)(C(F)(F)F)C(F)(F)F)cc(C)c1NC(=O)c1ccc(-n2cncn2)c(NC(=O)OC)c1 [Compound 1-47, Methyl[5-{[2-ethyl-4-(1,1,1,2,3,3,3-heptafluoropropan-2-yl)-6methylphenyl]carbamoyl}-2-(1H-1,2,4-triazol-1-yl)phenyl]carbamate]",100,–,100,–,–,pest or weed control at 100 ppm [3]: 100%; mortality at 100 ppm [5]: 90%
"CCc1cc(C(F)(C(F)(F)F)C(F)(F)F)cc(C)c1NC(=O)c1ccc(-n2cncn2)c(C#N)c1 [Compound 1-49, 3-cyano-N-[2-ethyl-4-(1,1,1,2,3,3,3-heptafluoropropan-2-yl)-6-methylphenyl]-4-(1H-1,2,4-triazol-1-yl)benzamide]",100,100,100,–,–,pest or weed control at 100 ppm [3]: 100%; mortality at 100 ppm [5]: 95%; mortality at 100 ppm [6]: 100%
"CCc1cc(C(F)(C(F)(F)F)C(F)(F)F)cc(C)c1NC(=O)c1ccc(CNC(C)=O)cc1 [Compound 5-28, 4-(acetamidomethyl)-N-[2-ethyl-4-(1,1,1,2,3,3,3-heptafluoro-propan-2-yl)-6-methylphenyl]benzamide]",100,100,100,–,–,mortality at 100 ppm [5]: 100%
CCc1cc(C(F)(C(F)(F)F)C(F)(F)F)cc(C)c1NC(=O)c1ccc(CNC(=O)c2cccnc2F)c(Cl)c1 [Compound 5-82],–,100,–,100,100,activity (percentage of larval mortality) [6]: 95%
CCc1cc(C(F)(C(F)(F)F)C(F)(F)F)cc(C)c1NC(=O)c1ccc(CNC(=O)CC(F)(F)F)c(C)c1 [Compound 5-102],100,100,100,–,–,pest or weed control at 100 ppm [3]: 100%
CCC(=O)NCc1ccc(C(=O)Nc2c(C)cc(C(F)(C(F)(F)F)C(F)(F)C(F)(F)F)cc2CC)cc1 (centres unmarked) [Compound 5-139],–,–,–,100,100,activity (mortality in %) [5]: 98%
CCc1cc(C(F)(C(F)(F)F)C(F)(F)C(F)(F)F)cc(C)c1NC(=O)c1ccc(CNC(=O)CC(F)(F)F)cc1 (centres unmarked) [Compound 5-142],–,–,–,100,100,activity (percentage of larval mortality) [6]: 95%
CCc1cc(C(F)(C(F)(F)F)C(F)(F)C(F)(F)F)cc(C)c1NC(=O)c1ccc(CNC(=O)C2CC2)c(F)c1 (centres unmarked) [Compound 5-146],–,–,–,100,–,activity (percentage of larval mortality) [6]: 95%
CCc1cc(C(F)(C(F)(F)F)C(F)(F)C(F)(F)F)cc(C)c1NC(=O)c1ccc(CNC(=O)C2CC2)c(Br)c1 (centres unmarked) [Compound 5-159],–,–,–,100,–,activity (mortality in %) [5]: 98%
CCc1cc(C(F)(C(F)(F)F)C(F)(F)C(F)(F)F)cc(C)c1NC(=O)c1ccc(CNC(=O)c2cccnc2F)c(F)c1 (centres unmarked) [Compound 5-174],–,–,–,100,100,activity (percentage of larval mortality) [6]: 95%
CCc1cc(C(F)(C(F)(F)F)C(F)(F)C(F)(F)F)cc(C)c1NC(=O)c1ccc(CNC(C)=O)c(I)c1 (centres unmarked) [Compound 5-194],–,–,–,100,–,activity (percentage of larval mortality) [6]: 95%
CCc1cc(C(F)(C(F)(F)F)C(F)(F)Br)cc(C)c1NC(=O)c1ccc(CNC(=O)CSC)c(Cl)c1 (centres unmarked) [Compound 5-320],–,100,–,100,100,–
CSCC(=O)NCc1ccc(C(=O)Nc2c(Cl)cc(C(F)(C(F)(F)F)C(F)(F)C(F)(F)F)cc2Cl)cc1Cl (centres unmarked) [Compound 5-331],–,100,–,100,100,–
Cc1cc(C(F)(C(F)(F)F)C(F)(F)F)cc(OC(F)F)c1NC(=O)c1ccc(CNC(=O)C2CC2)c(Cl)c1 [Compound 5-341],–,100,–,100,100,–
CCc1cc(C(F)(C(F)(F)F)C(F)(F)F)cc(C)c1NC(=O)c1ccc(CNC(=O)CC2CC2)cn1 [Compound 7-5],–,–,–,100,100,activity (mortality in %; 100% means that all eggs are infertile) [4]: 95%
"CCc1cc(C(F)(C(F)(F)F)C(F)(F)F)cc(C)c1NC(=O)c1ccc(C(C)NC(C)=O)cc1 (centres unmarked) [Compound 9-2, 4-(1-acetamidoethyl)-N-[2-ethyl-4-(1,1,1,2,3,3,3-heptafluoropropan-2-yl)-6-methylphenyl]benzamide]",100,100,–,–,–,pest or weed control at 100 ppm [3]: 100%
CCC(=O)NC(C)c1ccc(C(=O)Nc2c(C)cc(C(F)(C(F)(F)F)C(F)(F)F)cc2CC)cc1 (centres unmarked) [Compound 9-3],–,100,–,100,100,–
CCC(=O)NC1CCc2cc(C(=O)Nc3c(C)cc(C(F)(C(F)(F)F)C(F)(F)F)cc3CC)ccc21 (centres unmarked) [Compound 10-3],–,100,–,100,100,–
CCc1cc(C(F)(C(F)(F)F)C(F)(F)F)cc(C)c1NC(=O)c1ccc2c(c1)CCC2NC(=O)CC(F)(F)F (centres unmarked) [Compound 10-6],–,100,–,100,100,–
"CCc1cc(C(F)(C(F)(F)F)C(F)(F)F)cc(C)c1NC(=O)c1ccc(-n2cncn2)c(CNC(=O)OC(C)(C)C)c1 [Compound 12-1, tert-butyl[5-{[2-ethyl-4-(1,1,1,2,3,3,3-heptafluoropropan-2-yl)-6-methylphenyl]carbamoyl}-2-(1H-1,2,4-triazol-1-yl)benzyl]carbamate]",100,–,100,–,–,–
"CCc1cc(C(F)(C(F)(F)F)C(F)(F)F)cc(C)c1NC(=O)c1ccc(CN2C(=O)c3ccccc3C2=O)cc1 [Compound F-4, 4-[(1,3-dioxo-1,3-dihydro-2H-isoindol-2-yl)methyl]-N-[2-ethyl-4-(1,1,1,2,3,3,3-hepta-fluoropropan-2-yl)-6-methylphenyl]benzamide]",–,–,100,–,–,mortality at 100 ppm [6]: 90%
"CCc1cc(C(F)(C(F)(F)F)C(F)(F)F)cc(C)c1NC(=O)c1ccc(C#N)c(C)c1 [Compound I-5, 4-cyano-N[2-ethyl-4-(1,1,1,2,3,3,3-heptafluoropropan-2-yl)-6-methylphenyl]-3-methylbenzamide]",100,–,100,–,–,pest or weed control at 100 ppm [3]: 100%; mortality at 100 ppm [6]: 100%
Cc1cc(C(F)(C(F)(F)F)C(F)(F)F)cc(OC(F)F)c1NC(=O)c1ccc(C#N)cc1Cl [Compound I-12],–,100,–,100,100,–
CCc1cc(C(F)(C(F)(F)F)C(F)(F)F)cc(C)c1NC(=O)c1ccc(C#N)nc1 [Compound J-1],–,–,–,–,–,activity (mortality in %; 100% means that all eggs are infertile) [4]: 95%
